Test results: publication PMC10794982, “β-Caryophyllene Inhibits Monoacylglycerol Lipase Activity and Increases 2-Arachidonoyl Glycerol Levels In Vivo: A New Mechanism of Endocannabinoid-Mediated Analgesia?” (Molecular Pharmacology, 2024)

How the values were obtained:
[1] = target: T1, monoacylglycerol lipase (MAGL) (Homo sapiens, UniProt Q99685); assay: hydrolysis by kit MAGL, arachidonic acid product by HPLC-MS/MS; type: biochemical
T1 construct: gene MGLL
T1 sequence (Q99685 1-303): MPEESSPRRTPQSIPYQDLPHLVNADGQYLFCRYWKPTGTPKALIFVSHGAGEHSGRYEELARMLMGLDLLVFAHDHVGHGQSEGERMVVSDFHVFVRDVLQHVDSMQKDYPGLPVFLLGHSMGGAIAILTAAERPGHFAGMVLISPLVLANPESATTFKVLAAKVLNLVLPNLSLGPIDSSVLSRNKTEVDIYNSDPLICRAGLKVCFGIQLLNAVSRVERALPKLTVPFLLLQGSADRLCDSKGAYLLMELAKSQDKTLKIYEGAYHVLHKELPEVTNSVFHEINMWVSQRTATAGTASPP
Method: hydrolysis by kit MAGL, arachidonic acid product by HPLC-MS/MS on monoacylglycerol lipase (MAGL) | natural substrate 2-AG, which is hydrolyzed by MAGL to glycerol and AA. AA concentrations were determined using HPLC-MS/MS

[2] = target: T1, monoacylglycerol lipase (MAGL); assay: modified Cayman MAGL inhibitor kit, 2-AG hydrolysis to arachidonic acid by HPLC-MS/MS; type: biochemical

Structure (SMILES)	hydrolysis by kit MAGL, arachidonic acid product by HPLC-MS/MS [1]	IC50 [2] [µM]
CCCCC/C=C\C/C=C\C/C=C\C/C=C\CCCC(=O)OC(CO)CO [2-AG, 2-arachidonoylglycerol]	natural substrate 2-AG, which is hydrolyzed by MAGL to glycerol and AA. AA concentrations were determined using HPLC-MS/MS	
C=C1CC/C=C(\C)CC[C@@H]2[C@@H]1CC2(C)C [BCP, β-Caryophyllene]		15.8
